# US20250170090A1, “METHOD FOR PREVENTING OR TREATING DISEASE OR DISORDER ASSOCIATED WITH ANTINEOPLASTIC AGENT” (ONQUALITY PHARMACEUTICALS CHINA LTD., priority 2022, published 2025)
# Where two headings read alike, the source gives them in different places.
# How the values were obtained:
# [1] = test system: hand-foot syndrome induced by anti-tumor agents; test: Prevention of hand-foot syndrome induced by anti-tumor agents in rats, NO-NSAID ointment on hind paws (Table 2-2); assay type: in vivo, SD rats; conditions: Rattus norvegicus, topical, read-out: Control rate; for responders at 0.5 %: ointment 0.50% wt; for responders at 1 %: ointment 1% wt; for responders at 2.5 %: ointment 2.50% wt; for responders at 5 %: ointment 5% wt
# Excerpt: A rat animal model was constructed, and the anti-tumor agents shown in Table 2-2 were respectively administered to 8-week-old female SD rats by daily oral gavage. […] Therefore, rats serve as an excellent animal model for simulating side effects (such as hand-foot syndrome) caused by anti-tumor agents.
# After the rats (about 200 g) were fed and adapted for one week, they were divided into a NO-NSAID group and a control group, with 10 rats in each group, and a gavage administration test was conducted. The various anti-tumor agents were dissolve in a mixed solution of Cremophor EL:ethanol=1:1. The anti-tumor agent solution were diluted with PBS to the required concentration (about 3 times with PBS solution) before gavage administration. After gavage, an ointment containing NO-NSAID was applied to the hind paws of the rats, while the control group was applied with a blank ointment. After application, the rats were placed in a fixed cylinder for 4 hours. After 4 hours, the rats were released and the residual ointment was wiped off with clean water, then the rats were returned to the cage. The gavage frequency of inhibitors was shown in Table 2-2, and NO-NSAID was only applied once a day. The gavage and application operations were repeated daily until the end of the experiment.
# Table 2-2 lists the animal experimental combinations of various anti-tumor agents and NO-NSAID ointments, as well as the corresponding experimental results (wherein the value in the control rate column=the hand-foot syndrome incidence rate in the blank group−the hand-foot syndrome incidence rate in the treatment group).
# HUVEC cells = test: CCK-8 cell viability: alleviation of proliferative toxicity of anti-tumor agents on HUVEC cells (Tables 7-1, 7-2); assay type: cell-based; conditions: for activation at 100 µM: Homo sapiens, 24 h, percentage increase in viable cells vs anti-tumor agent alone, read-out: Response rate % (average)
# Procedure: The cultured HUVEC cells were digested the suspended, counted, and seed into a 96-well plate with 5,000-10,000 cells per well. The wells are divided into the following groups: blank control group, anti-tumor agent group, anti-tumor agent+NO-NSAID group, anti-tumor agent solvent group, NO-NSAID control group. Wherein each well of each group contained a basic medium, and the final liquid volume contained in each well was about 100 μL. The grouping situation was as follows: • 1) Blank control group: no solution was added except normally replacing the medium; • 2) Anti-tumor agent group: added the anti-tumor agent solution (the final concentration was shown in Table 7-1 and Table 7-2, the solvent of the anti-tumor agent solution was DMSO); • 3) Anti-tumor agent+NO-NSAID group: added the anti-tumor agent solution and the NO-NSAID solution (the final concentrations of anti-tumor agent and NO-NSAID were shown in Table 7-1 and Table 7-2, and according to the solubility of NO-NSAID, the solvent of NO-NSAID solution was selected as ethanol or sterile water, and minor volume differences in each group were adjusted by added the corresponding solvent); • 4) Anti-tumor agent solvent group: an equal volume of DMSO as contained in the corresponding anti-tumor agent solution in Group 2) was added; • 5) NO-NSAID control group: the same volume and type of solvent (for example, ethanol or sterile water) corresponding to the NO-NSAID contained in group 3) was added.
# The anti-tumor agent solvent group was not involved in data processing and was only used as a reference for evaluating experimental system error. The NO-NSAID solvent control group was used for data correction to eliminate the influence of the solvent on the results.
# After culturing for 24-48 hours, the Cell Counting Kit-8 (CCK-8) detection kit (C0037, Shanghai Beyotime Biotechnology Co., Ltd., Beyotime Biotechnology) was used to determine the cell viability. This allows for the calculation of the proliferative toxicity of anti-tumor agent on cell and the mitigating effect of NO-NSAID on proliferative toxicity. The results were statistically analyzed and plotted using GraphPad Prism 6.0 software and t test.
# [2] = 120 h, Sorafenib 80 mg/kg once a day, Days 5
# [3] = 432 h, Cabozantinib 50 mg/kg once a day, Days 18
# [4] = 432 h, Lenvatinib 100 mg/kg twice a day, Days 18
# [5] = 432 h, Nintedanib 110 mg/kg once a day, Days 18
# [6] = 432 h, Regorafenib 90 mg/kg once a day, Days 18
# [7] = Afatinib (10 μM), NO-NSAID 100 μM
# [8] = Cabozantinib (5 μM), NO-NSAID 100 μM
# [9] = Dabrafenib (10 μM), NO-NSAID 100 μM
compound,measurement,setting,value
CC(C(=O)OCCCO[N+](=O)[O-])c1ccc(-c2ccccc2)c(F)c1 (stereo not drawn) [Compound A1],responders at 0.5 %,[1]; [2],42.9%
same,responders at 1 %,[1]; [2],42.9%
same,responders at 2.5 %,[1]; [2],60%
same,responders at 5 %,[1]; [2],83.3%
same,responders at 2.5 %,"[1]; 360 h, Apatinib 105 mg/kg once a day, Days 15",57.1%
same,responders at 2.5 %,"[1]; 360 h, Encorafenib 80 mg/kg once a day, Days 15",60%
same,responders at 2.5 %,"[1]; 360 h, Lapatinib 120 mg/kg twice a day, Days 15",33.3%
same,responders at 2.5 %,"[1]; 360 h, Sunitinib 120 mg/kg once a day, Days 15",57.1%
same,responders at 2.5 %,"[1]; 384 h, Fruquintinib 40 mg/kg once a day, Days 16",57.1%
same,responders at 2.5 %,"[1]; 432 h, Anlotinib 20 mg/kg once a day, Days 18",33.3%
same,responders at 2.5 %,"[1]; 432 h, Axitinib 50 mg/kg once a day, Days 18",60%
same,responders at 1 %,[1]; [3],40%
same,responders at 2.5 %,[1]; [3],33.3%
same,responders at 5 %,[1]; [3],66.7%
same,responders at 1 %,[1]; [4],28.6%
same,responders at 2.5 %,[1]; [4],57.1%
same,responders at 5 %,[1]; [4],57.1%
same,responders at 1 %,[1]; [5],33.3%
same,responders at 2.5 %,[1]; [5],66.7%
same,responders at 5 %,[1]; [5],66.7%
same,responders at 0.5 %,[1]; [6],33.3%
same,responders at 1 %,[1]; [6],50%
same,responders at 2.5 %,[1]; [6],42.9%
same,responders at 5 %,[1]; [6],80%
same,responders at 2.5 %,"[1]; 480 h, Erdafitinib 45 mg/kg once a day, Days 20",42.9%
same,responders at 2.5 %,"[1]; 480 h, Olmutinib 100 mg/kg once a day, Days 20",50%
same,NO-NSAID response rate % (average),"HUVEC cells; Afatinib (10 μM), NO-NSAID 0.1 μM",13%
same,NO-NSAID response rate % (average),"HUVEC cells; Afatinib (10 μM), NO-NSAID 1 μM",20%
same,NO-NSAID response rate % (average),HUVEC cells; [7],50%
same,NO-NSAID response rate % (average),"HUVEC cells; Afatinib (10 μM), NO-NSAID 500 μM",25%
same,NO-NSAID response rate % (average),"HUVEC cells; Cabozantinib (5 μM), NO-NSAID 0.1 μM",10%
same,NO-NSAID response rate % (average),"HUVEC cells; Cabozantinib (5 μM), NO-NSAID 1 μM",10%
same,NO-NSAID response rate % (average),HUVEC cells; [8],4%
same,NO-NSAID response rate % (average),"HUVEC cells; Cabozantinib (5 μM), NO-NSAID 500 μM",15%
same,NO-NSAID response rate % (average),"HUVEC cells; Dabrafenib (10 μM), NO-NSAID 0.1 μM",22%
same,NO-NSAID response rate % (average),"HUVEC cells; Dabrafenib (10 μM), NO-NSAID 1 μM",48%
same,NO-NSAID response rate % (average),HUVEC cells; [9],53%
same,NO-NSAID response rate % (average),"HUVEC cells; Dabrafenib (10 μM), NO-NSAID 500 μM",37%
same,NO-NSAID response rate % (average),"HUVEC cells; Everolimus (5 μM), NO-NSAID 0.1 μM",4%
same,NO-NSAID response rate % (average),"HUVEC cells; Everolimus (5 μM), NO-NSAID 1 μM",−2%
same,NO-NSAID response rate % (average),"HUVEC cells; Everolimus (5 μM), NO-NSAID 100 μM",62%
same,NO-NSAID response rate % (average),"HUVEC cells; Everolimus (5 μM), NO-NSAID 500 μM",20%
same,activation at 100 µM,HUVEC cells; [7],50%
same,activation at 100 µM,"HUVEC cells; Anlotinib (5 μM), NO-NSAID 100 μM",16%
same,activation at 100 µM,"HUVEC cells; Apatinib (10 μM), NO-NSAID 100 μM",43%
same,activation at 100 µM,"HUVEC cells; Axitinib (10 μM), NO-NSAID 100 μM",65%
same,activation at 100 µM,HUVEC cells; [8],4%
same,activation at 100 µM,HUVEC cells; [9],53%
